Measured values as given in patent US20120231007A1, “MODULATORS OF CELL CYCLE PROGRESSION” (SINGAPORE HEALTH SERVICES PTE. LTD., priority 2009, published 2012).
Peptide text beside a SMILES is read from it. * marks the point of attachment. Cbz = O=C(OCc1ccccc1)*

Experiments:
U118 glioma cells = experiment: Warburg effect: Western blot of AMPK phosphorylation, mTOR activity and ECT2 expression; type: cell-based, human
Method: Western blot analysis. Whole cell lysates were prepared at the indicated time points following treatment. Cells were lysed in 0.1% SDS buffer (50 mM Tris-HCl, pH7.5, 150 mM NaCl, 1% NP-40, 1% sodium deoxycholate, 0.1 mM sodium vanadate, 50 mM b-glycerophosphate, 1 mM NaF) supplemented with protease inhibitor cocktail (Roche, Basel, Switzerland). Lysates were clarified by centrifugation at 13,000 rpm for 20 min at 4° C. Protein quantity was determined by the Bradford Assay Reagent (Bio-Rad). Typically, 50 μg of protein was resolved on either 6% or 12% SDS-polyacrylamide and transferred onto PVDF membranes (Millipore, Billerica, Mass.). Membranes were probed using antibodies specific to Ect2 and other proteins listed in the attached document. Protein bands were visualized by chemiluminescence using the ECL Western blotting system (Amersham, Arlington Heights, Ill.) according to manufacturer's protocol. Actin was used as loading control.
The use of ECT2 inhibitor sensitizes glioma cell stochemotherapy treatment such as with Temozolomide (FIG. 14). ECT2 regulation by RTK/mTOR pathway through EGFR inhibition (FIG. 18) with Erlotinib (10 uM) (FIG. 18A), Akt inhibition with API2 (10 uM), and mTOR inhibition with Rapamycin (50 nM) (FIG. 18B) Warburg effect and ECT2 regulation was examined in U118 glioma cells. The cells were treated with glycolysis or oxidative phosphorylation inhibitors [2-Deoxy-glucose (2DG) and oligomycin, respectively]. Filipin III was used to permeabilise mitochondria to provide exogenous source of pyruvate for the Tricarboxylic acid (TCA) cycle. Cellular energy level was measured by Western blot analysis of AMPK phosphorylation.

p27^Kip1 = experiment: Western blot of p27^Kip1 protein; type: cell-based, human; conditions: MG132 100 nM added to cells over-expressing Ect2
Method: Cell Culture and Transfection. A172, U87, U118, U373 and T98G human glioma cells (ATCC, Manassas, Va.) were cultured in Dulbecco's modified Eagle's medium (DMEM) supplemented with 10% fetal bovine serum (Hyclone, South Logan, Utah). Cells were synchronised at quiescence through serum starvation. Full-length human Ect2 was cloned into the expression vector pXJ41 using EcoRI and BamHI digestion. The Ect2 truncation mutants ΔN-Ect2-DH/PH/C, ΔN-Ect2-DH/PH and ΔN-Ect2-DH were cloned in pCTV3-HA3. p27-PF, p27-ApaI, pGVB2 were gifts. For transient expression, cells were seeded at 40% confluence and transfected with 1.5 μg of DNA using Polyfect transfection reagent (Qiagen GmBH, Hilden, Germany). For knockdown experiments, Ect2 siRNAs were transfected into cells using SilentFect (Bio-Rad, Hercules, Calif.). RhoA inhibitor C3 exoenzyme (Upstate Biotech, Billerica, Mass.) was introduced into cells using Lipofectamine2000 (Invitrogen, Carlsbad, Calif.) at a concentration of 10 mg/ml. Cells were treated with the proteasome inhibitor MG132 (Calbiochem, San Diego, Calif.) at a concentration of 100 nM.
Western blot analysis. Whole cell lysates were prepared at the indicated time points following treatment. […] Protein quantity was determined by the Bradford Assay Reagent (Bio-Rad). […]

Structure (SMILES) | ECT2 expression (U118 glioma cells) | mTOR activity (U118 glioma cells) | phosphorylated AMPK (U118 glioma cells; glycolysis inhibition) | Ect2-mediated suppression of p27^Kip1 (p27^Kip1)
O=CC[C@@H](O)[C@H](O)[C@H](O)CO [2DG, 2-Deoxy-D-glucose] | reduced | significantly lower | higher level | 
CC(C)C[C@@H](C=O)NC(=O)[C@H](CC(C)C)NC(=O)[C@H](CC(C)C)NC(=O)OCc1ccccc1 [MG132] (Cbz-Leu-Leu-Leu-aldehyde) |  |  |  | completely abrogated
CC[C@H]1/C=C/C=C/C[C@@H](C)[C@H](O)[C@@](C)(O)C(=O)[C@@H](C)[C@H](O)[C@@H](C)C(=O)[C@@H](C)[C@H](O)[C@@H](C)/C=C/C(=O)O[C@@H]2[C@H](C)[C@H](CC1)O[C@]1(CC[C@H](C)[C@H](C[C@@H](C)O)O1)[C@H]2C [oligomycin] | did not affect | did not affect |  | 
